In assay [1] the target is T1, GSK3a (GST-full length GSK3a) (Homo sapiens, UniProt P49840).
T1 construct: GST-full length GSK3a [SignalChem G08-10G]; purchased SignalChem G08-10G
As to the kind of experiment: GSK3a TR-FRET kinase inhibition assay. The class given is biochemical. Here is the method:
(§1) TR-FRET assay was performed in a white, 384 well, low volume, flat bottom plate (Grenier). After a 30 minute preincubation in assay buffer with the indicated concentration of compound, the kinase activity was initiated by the addition of the substrates. 1 nM GSK3a (GST-full length GSK3a [SignalChem G08-10G]) or 1 nM GSK3b (GST-full length GSK3b: [SignalChem G08-9G]) were then incubated at ambient temperature for 100 minutes in 10 μl of 50 mM Tris, pH 7.5, 20 mM MgCl2, 0.05 mM DTT, 100 μg/ml BSA and 1% DMSO, with 200 nM biotinylated peptide substrate (biotinylated and S645 phosphorylated glycogen synthase 631-650) and ATP (e.g., at 2 μM, 4 μM, 10 μM, 100 μM, or 1 mM). The kinase activity was quenched with 2 μl of 250 mM EDTA. A 10 μl volume of 40 nM Strepavidin-d2, 2 nM […] antibody in TR-FRET Detection Buffer (Invitrogen) was then added. After 60 min at room temperature the plate was read on Envision plate reader using Ex: 340 nm, Em: 615 nm and […]. The normalized 665/615 Signal ratio versus log compound concentration was analyzed by XLFIT to yield IC50 values.

For assay [2], the target named is T2, GSK3b (GST-full length GSK3b) (Homo sapiens, UniProt P49841).
T2 construct: GST-full length GSK3b: [SignalChem G08-9G]; purchased SignalChem G08-9G
T2 sequence (P49841 whole entry): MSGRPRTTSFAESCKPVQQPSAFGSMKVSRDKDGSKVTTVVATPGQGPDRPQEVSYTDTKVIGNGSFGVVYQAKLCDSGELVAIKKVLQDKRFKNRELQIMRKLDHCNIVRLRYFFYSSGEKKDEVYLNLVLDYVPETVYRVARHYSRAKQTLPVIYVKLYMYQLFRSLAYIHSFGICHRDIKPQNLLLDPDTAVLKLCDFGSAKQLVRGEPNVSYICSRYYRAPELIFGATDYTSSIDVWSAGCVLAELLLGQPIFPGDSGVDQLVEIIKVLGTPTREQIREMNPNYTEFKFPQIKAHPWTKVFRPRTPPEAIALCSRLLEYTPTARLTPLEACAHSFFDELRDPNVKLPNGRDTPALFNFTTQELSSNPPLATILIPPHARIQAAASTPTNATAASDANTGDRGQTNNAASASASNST
As to the kind of experiment: GSK3b TR-FRET kinase inhibition assay. The class given is biochemical. The protocol: as §1

[3] abbreviates: 4 μM ATP, read-out: GSK3α TR-FRET 4 μM ATP GMean IC50.
Where [4] appears, read: 2 μM ATP, read-out: GSK3β TR-FRET 2 μM ATP GMean IC50.
[5] abbreviates: 1 mM ATP, Table 5, read-out: GSK3α TR-FRET 1 mM ATP Average IC50.
[6] abbreviates: 1 mM ATP, Table 5, read-out: GSK3β TR-FRET 1 mM ATP Average IC50.
Where [7] appears, read: 1 mM ATP, Table 3, read-out: GSK3b TR-FRET 1 mM ATP Average IC50.
Where [8] appears, read: 1 mM ATP, Table 3, read-out: GSK3a TR-FRET 1 mM ATP Average IC50.

Read-outs that look alike come from different tables or passages of the source.

T1 sequence (P49840 whole entry): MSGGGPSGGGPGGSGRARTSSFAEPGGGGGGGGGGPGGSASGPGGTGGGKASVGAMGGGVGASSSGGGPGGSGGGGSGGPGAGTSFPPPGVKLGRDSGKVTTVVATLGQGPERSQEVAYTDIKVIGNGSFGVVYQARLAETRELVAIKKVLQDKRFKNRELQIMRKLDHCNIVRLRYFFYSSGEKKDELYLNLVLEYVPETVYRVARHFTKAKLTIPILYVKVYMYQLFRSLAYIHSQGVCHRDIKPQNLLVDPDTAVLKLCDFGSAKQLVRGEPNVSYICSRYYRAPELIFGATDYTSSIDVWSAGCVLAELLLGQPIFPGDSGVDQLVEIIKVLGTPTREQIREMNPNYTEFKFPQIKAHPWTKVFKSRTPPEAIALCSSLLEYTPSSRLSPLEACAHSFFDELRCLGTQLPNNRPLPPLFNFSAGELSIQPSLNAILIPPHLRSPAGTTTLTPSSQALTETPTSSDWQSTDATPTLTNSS

Consider `CCC1(c2ccccc2)C2=C(CC(C)(C)CC2=O)Nc2ncccc21` (racemic) [Compound 102], for which the IC50 in assay [1] (setting [3]) and in assay [2] (setting [4]) was 0.1 to 1 µM each time.
`CCC1(c2ccccc2)C2=C(CC(C)(C)CC2=O)Nc2ncc(F)cc21` (racemic) [Compound 114]: the IC50 in assay [1] (setting [3]) and in assay [2] (setting [4]) was at most 0.1 µM throughout.
`CCC1(c2cccc(C3CCC3)c2)C2=C(CC(C)(C)CC2=O)Nc2ncccc21` (racemic) [Compound 1012]: the IC50 in assay [1] (setting [3]) and in assay [2] (setting [4]) was at most 0.1 µM each time.
As to `CCC1(c2ccccc2)C2=C(CC3(CCC3)CC2=O)Nc2ncccc21` (single isomer, unassigned) [110 A], the IC50 in assay [1] (setting [3]) and in assay [2] (setting [4]) was at most 0.1 µM throughout.
`CCC1(c2ccccc2)C2=C(CC3(CCC3)CC2=O)Nc2ncccc21` (single isomer, unassigned) [110 B]: the IC50 in assay [1] (setting [3]) and in assay [2] (setting [4]) was above 5 µM throughout.
As for `CCC1(c2ccccc2)C2=C(CC(C)(C)CC2=O)Nc2ncc(F)cc21` (single isomer, unassigned) [114 A], the IC50 in assay [1] (setting [3]) was at most 0.1 µM; in assay [1] (1 mM ATP, Table 4, read-out: GSK3α TR-FRET 1 mM ATP GMean IC50) it was 0.1 to 1 µM; in assay [2] (setting [4]), at most 0.1 µM; in assay [2] (1 mM ATP, Table 4, read-out: GSK3β TR-FRET 1 mM ATP GMean IC50), 1 to 5 µM.
As to `CCC1(c2ccccc2)C2=C(CC(C)(C)CC2=O)Nc2ncc(F)cc21` (single isomer, unassigned) [114 B], the IC50 in assay [1] (setting [3]) is 0.1 to 1 µM; in assay [2] (setting [4]), 1 to 5 µM.
Taken in the same sequence, the figures for `CCC1(c2ccccc2)C2=C(CC(C)(C)CC2=O)Nc2ncc(C(F)(F)F)cc21` (single isomer, unassigned) [133 A] were above 5 µM and above 5 µM.
Taken in the same sequence, the figures for `CCC1(c2ccccc2)C2=C(CC(C)(C)CC2=O)Nc2ncc(C(F)(F)F)cc21` (single isomer, unassigned) [133 B] were at most 0.1 µM and at most 0.1 µM.
In the same order, the values of `CCC1(c2cccc(-c3ccnc(C)c3C)c2)C2=C(CC(C)(C)CC2=O)Nc2ncccc21` (single isomer, unassigned) [147 A] are 1 to 5 µM and above 5 µM.
For the molecule `Cc1cnc2c(c1C)C(C)(c1ccccc1)C1=C(CC(C)(C)CC1=O)N2` (single isomer, unassigned) [601A], the IC50 in assay [1] (setting [5]) and in assay [2] (setting [6]) was 1 to 5 µM each time.
Turning to `Cc1cnc2c(c1C)C(C)(c1ccccc1)C1=C(CC(C)(C)CC1=O)N2` (single isomer, unassigned) [601B], the IC50 in assay [1] (setting [5]) and in assay [2] (setting [6]) was 5 to 20 µM each time.
For `COc1cnc2c(c1)C(C)(c1ccccc1)C1=C(CC(C)(C)CC1=O)N2` (single isomer, unassigned) [602B], the IC50 in assay [2] (setting [6]) lay in the range of 5 to 20 µM.
`Cc1cnc2c(c1C#N)C(C)(c1ccccc1)C1=C(CC(C)(C)CC1=O)N2` (single isomer, unassigned) [603A]: the IC50 in assay [1] (setting [5]) and in assay [2] (setting [6]) was 5 to 20 µM throughout.
As to `Cc1cnc2c(c1C#N)C(C)(c1ccccc1)C1=C(CC(C)(C)CC1=O)N2` (single isomer, unassigned) [603B], the IC50 in assay [1] (setting [5]) and in assay [2] (setting [6]) was 0.1 to 1 µM throughout.
Regarding `CC1(C)CC2=C(C(=O)N1)C(C)(c1ccccc1)c1c(ncc(F)c1C#N)N2` (single isomer, unassigned) [604A], the IC50 in assay [1] (setting [5]) and in assay [2] (setting [6]) was 1 to 5 µM in each case.
Take `CC1(C)CC2=C(C(=O)N1)C(C)(c1ccccc1)c1c(ncc(F)c1C#N)N2` (single isomer, unassigned) [604B]: the IC50 in assay [1] (setting [5]) and in assay [2] (setting [6]) was at most 0.1 µM throughout.
For `CC1(C)CC(=O)C2=C(C1)Nc1ncc(C#N)c(C#N)c1C2(C)c1ccccc1` (single isomer, unassigned) [605A], the IC50 in assay [1] (setting [5]) and in assay [2] (setting [6]) was 0.1 to 1 µM in each case.
For `CC1(C)CC(=O)C2=C(C1)Nc1ncc(C#N)c(C#N)c1C2(C)c1ccccc1` (single isomer, unassigned) [605B], the IC50 in assay [1] (setting [5]) and in assay [2] (setting [6]) was 5 to 20 µM throughout.
Take `CC1(C)CC(=O)C2=C(C1)Nc1ncc3ccccc3c1C2(C)c1ccccc1` (single isomer, unassigned) [606A]: the IC50 in assay [1] (setting [5]) and in assay [2] (setting [6]) was 5 to 20 µM throughout.
Regarding `CC1(C)CC(=O)C2=C(C1)Nc1ncc3ccccc3c1C2(C)c1ccccc1` (single isomer, unassigned) [606B], the IC50 in assay [1] (setting [5]) and in assay [2] (setting [6]) was 1 to 5 µM in each case.
Consider `C=Cc1cnc2c(c1C#N)C(C)(c1ccccc1)C1=C(CC(C)(C)CC1=O)N2` (single isomer, unassigned) [607A], for which the IC50 in assay [1] (setting [5]) and in assay [2] (setting [6]) was 1 to 5 µM in each case.
Consider `C=Cc1cnc2c(c1C#N)C(C)(c1ccccc1)C1=C(CC(C)(C)CC1=O)N2` (single isomer, unassigned) [607B], for which the IC50 in assay [1] (setting [5]) and in assay [2] (setting [6]) was 5 to 20 µM each time.
Turning to `CCc1cnc2c(c1C#N)C(C)(c1ccccc1)C1=C(CC(C)(C)CC1=O)N2` (single isomer, unassigned) [608A], the IC50 in assay [1] (setting [5]) and in assay [2] (setting [6]) was 1 to 5 µM in each case.
Turning to `CCc1cnc2c(c1C#N)C(C)(c1ccccc1)C1=C(CC(C)(C)CC1=O)N2` (single isomer, unassigned) [608B], the IC50 in assay [1] (setting [5]) and in assay [2] (setting [6]) was 5 to 20 µM in each case.
Take `Cn1ncc2c3c(ncc21)NC1=C(C(=O)CC(C)(C)C1)C3(C)c1ccccc1` (single isomer, unassigned) [609A]: the IC50 in assay [1] (setting [5]) and in assay [2] (setting [6]) was 5 to 20 µM throughout.
For the molecule `Cn1ncc2c3c(ncc21)NC1=C(C(=O)CC(C)(C)C1)C3(C)c1ccccc1` (single isomer, unassigned) [609B], the IC50 in assay [1] (setting [5]) is 5 to 20 µM; in assay [2] (setting [6]) it was 1 to 5 µM.
`CNc1cnc2c(c1C#N)C(C)(c1ccccc1)C1=C(CC(C)(C)CC1=O)N2` (single isomer, unassigned) [610B]: the IC50 in assay [1] (setting [5]) and in assay [2] (setting [6]) was 5 to 20 µM throughout.
Turning to `COc1cnc2c(c1C#N)C(C)(c1ccccc1)C1=C(CC(C)(C)CC1=O)N2` (single isomer, unassigned) [612A], the IC50 in assay [2] (setting [6]) fell in the range of 5 to 20 µM.
For the molecule `COc1cnc2c(c1C#N)C(C)(c1ccccc1)C1=C(CC(C)(C)CC1=O)N2` (single isomer, unassigned) [612B], the IC50 in assay [1] (setting [5]) and in assay [2] (setting [6]) was 5 to 20 µM each time.
For the molecule `CC1(C)CC(=O)C2=C(C1)Nc1ncc(CO)c(C#N)c1C2(C)c1ccccc1` (single isomer, unassigned) [613B], the IC50 in assay [1] (setting [5]) was 5 to 20 µM; in assay [2] (setting [6]), 1 to 5 µM.
Consider `CC(=O)c1cnc2c(c1C#N)C(C)(c1ccccc1)C1=C(CC(C)(C)CC1=O)N2` (single isomer, unassigned) [621B], for which, in assay [2] (setting [6]), the IC50 lay in the range of 5 to 20 µM.
Same read-out and setting: as for `CC(C)c1cnc2c(c1C#N)C(C)(c1ccccc1)C1=C(CC(C)(C)CC1=O)N2` (single isomer, unassigned) [622A], the figure is 5 to 20 µM.
In the case of `CC1(C)CC(=O)C2=C(C1)Nc1ncc(F)cc1C2(C)c1cccc(C(F)F)c1` (single isomer, unassigned) [623A], the IC50 in assay [1] (setting [5]) lay in the range of 5 to 20 µM.
For the molecule `CC1(C)CC2=C(C(=O)N1)C(C)(c1ccccc1)c1cc(C(F)(F)F)cnc1N2` (single isomer, unassigned) [625B], the IC50 in assay [1] (setting [5]) lay in the range of 5 to 20 µM.
As for `CC(C)Oc1cccc(C2(C)C3=C(CC(C)(C)CC3=O)Nc3ncc(F)cc32)c1` (single isomer, unassigned) [629A], the IC50 in assay [2] (setting [6]) lay within 5 to 20 µM.
For the molecule `CC1(C)CC2=C(C(=O)N1)C(C)(c1cccc(S(C)(=O)=O)c1)c1cccnc1N2` (single isomer, unassigned) [630B], in assay [1] (setting [5]), the IC50 lay within 5 to 20 µM.
On to `C=Cc1cnc2c(c1Br)C(C)(c1ccccc1)C1=C(CC(C)(C)CC1=O)N2` (single isomer, unassigned) [640A], for which, in assay [2] (setting [6]), the IC50 lay in the range of 5 to 20 µM.
Regarding `Cc1c(C2(C)C3=C(CC(C)(C)CC3=O)Nc3ncc(F)cc32)cccc1S(C)(=O)=O` (single isomer, unassigned) [643B], the IC50 in assay [1] (setting [5]) was in the range of 5 to 20 µM.
In the case of `CC1(C)CC(=O)C2=C(C1)Nc1nccc(F)c1C2(C)c1ccccc1` (single isomer, unassigned) [Compound 105A], the IC50 in assay [2] (setting [7]) fell in the range of 5 to 20 µM.
The same measure, in the same setting: with `CC1(C)CC(=O)C2=C(C1)Nc1ncc(F)cc1C2(C)c1ccccc1` (single isomer, unassigned) [Compound 107A] the figure was 5 to 20 µM.
In the case of `CC1(C)CC(=O)C2=C(C1)Nc1nccc(C#N)c1C2(C)c1ccccc1` (single isomer, unassigned) [Compound 108B], the IC50 in assay [1] (setting [8]) was 5 to 20 µM.
The same measure, in the same setting: with `CC1(C)CC(=O)C2=C(C1)Nc1ncc(F)c(F)c1C2(C)c1ccccc1` (single isomer, unassigned) [Compound 116A] the figure was 5 to 20 µM.
As for `CC1(C)CC(=O)C2=C(C1)Nc1ncc3c(c1C2(C)c1ccccc1)CCC3` (single isomer, unassigned) [Compound 118A], the IC50 in assay [2] (setting [7]) lay within 5 to 20 µM.

The values above are taken from patent US20260103465A1, “GLYCOGEN SYNTHASE KINASE 3 INHIBITORS AND USES THEREOF” (The Broad Institute, Inc., priority 2023, published 2026).
